Measured values taken from patent US8507409B2, “Synergistic combination of a glyphosate compound and DMITS” (Dow Global Technologies LLC, priority 2010, dated 2013).

Assays:
Assay type in all cases: cell-based
[1] = system: Chlorella sp., Chlorella kessleri, and Nostoc commune; experiment: Algal efficacy, dry paint film (Modified ASTM 5589), Cs + Ck + Nc pool; conditions: Ch-No; for Total conc in pppm: minimum inhibitory concentration chosen for SI calculation, total actives in paint
Experimental: (§1) Each sample was tested in duplicate.
(§2) In this synergy study, three pool of mixed algae were prepared as the test inoculum, Gloeocapsa sp. and Oscillatoria sp. a mix of cyanobacteria grown on BG-11 media; Chlorella sp., Chlorella kessleri, and Nostoc commune are unicellular chlorphytes that were mixed and grown on Bold media; Trentepohlia aurea, Tretepohlia odorata, and Calotrix parientina are filamentous algae that were mixed and grown on Bold media.
(§3) The plates were incubated at room temp (25° C.-26° C.) with cyclic exposure to light (OTT-Lite model # OTL4012P, 40 Watt, 26KLumen) and dark phases, for a period of four weeks. The total area covered was evaluated at the end of each week according to percent area covered in 5% increments.
(§4) The SI is calculated based on F. C.
(§5) SI value of <1 in the formula indicates a synergism of the blended biocides exists.
(§6) NE=no end point at the concentration tested that will meet the percent inhibition criteria set in each SI calculation.

[2] = system: Trentepohlia aurea, Tretepohlia odorata, and Calotrix parientina; experiment: Algal efficacy, dry paint film (Modified ASTM 5589), Cp + To + Ta pool; conditions: Cal-Tre; for Total conc in pppm: minimum inhibitory concentration chosen for SI calculation, NE=no end point
Experimental: as §1, §2, §3, §4, §5, §6

[3] = system: Gloeocapsa sp. and Oscillatoria sp.; experiment: Algal efficacy, dry paint film (Modified ASTM 5589), Gs + Os pool; conditions: Os-Gl; for Total conc in pppm: minimum inhibitory concentration chosen for SI calculation, total actives in paint
Experimental: as §1, §2, §3, §4, §5, §6

[4] = system: Aspergillus niger mixed with Penicillium funiculosum; experiment: Fungal efficacy, dry paint film (Modified ASTM 5590), An + Pf pool; conditions: for Total conc in pppm: minimum inhibitory concentration chosen for SI calculation, total actives in paint
Experimental: as §1, §4, §5, §6

[5] = at the total conc listed for the same ratio

Row | Compound | Total conc in pppm [1] [pppm] | Total conc in pppm [2] [pppm] | Total conc in pppm [3] [pppm] | Total conc in pppm [4] [pppm] | % Inhibition [1, 5] [%] | % Inhibition [2, 5] [%] | % Inhibition [3, 5] [%] | % Inhibition [4, 5] [%]
1 | zinc glyphosate | 412.5 | 412.5 | 412.5 | 412.5 | – | – | – | –
2 | Cc1ccc(S(=O)(=O)C(I)I)cc1 [DMITS, diiodomethyl-p-tolylsulfone] | 2475 | 3300 | 3300 | 825 | 80 | 20 | 20 | 80
